# US20220136032A1, “SELECTION MEDIUM FOR BACTERIA BELONGING TO GENUS PSEUDOMONAS AND USE THEREOF” (KABUSHIKI KAISHA YAKULT HONSHA, priority 2019, published 2022)
# Counter-ions that a name gives are not always drawn. Like-named read-outs stand apart in the source and are kept apart here.
# What was measured:
# Experiment in all cases: Measurement of minimum inhibitory concentrations (MICs), liquid medium, OD 660 nm
# [1] = tested on: E. faecium; type: cell-based, Enterococcus faecium; details: Trypticase Soy Broth, 37° C. 24 hours
# Procedure: (§1) Colonies of E. coli, E. faecium and C. kerstersii, which formed colonies on the plate medium obtained by mixing NAC medium and TSA medium at a ratio of 1:20, and colonies of P. aeruginosa were taken, added to 500 μl of the basal medium, stirred and subjected to the following experiment.
# (§2) As antibacterial agents to which the sensitivity of P. aeruginosa is low and to which the sensitivities of E. coli, E. faecium and C. kerstersii are high, cefotaxime sodium salt (Sigma (referred to as “Cefotaxime” below)), ceftizoxime sodium (Fujisawa Healthcare (referred to as “Ceftizoxime” below)), vancomycin hydrochloride (Sigma (referred to as “Vancomycin” below)), minocyclin hydrochloride (Sigma (referred to as “Minocyclin” below)) and cefalotin sodium salt (Sigma (referred to as “Cefalotin” below)) were selected. The antibacterial agents were dissolved in sterilized distilled water at 51.2 mg/ml and then sterilized by filtration through a membrane filter of 0.45 μm (DISMIC-25cs: Toyo Roshi).
# (§3) After adding 5 μl of the bacterial solutions to the wells and thoroughly stirring, the bacteria were cultured at 37° C. for 24 hours. After culturing, the OD values (660 nm) were measured, and the lowest concentrations of the antibacterial agents at which the growth was inhibited as compared to that of the negative control (MICs: minimum inhibitory concentrations) were determined. […]
# [2] = tested on: P. aeruginosa; type: cell-based, Pseudomonas aeruginosa; details: for MIC: Pseudomonas aeruginosa, read-out: MIC (μg/ml) P. aeruginosa
# Procedure: as §1
# The antibacterial agents were dissolved in sterilized distilled water at 51.2 mg/ml and then sterilized by filtration through a membrane filter of 0.45 μm (DISMIC-25cs: Toyo Roshi).
# (§4) After adding 5 μl of the bacterial solutions to the wells and thoroughly stirring, the bacteria were cultured at 37° C. for 24 hours. After culturing, the OD values (660 nm) were measured, and the lowest concentrations of the antibacterial agents at which the growth was inhibited as compared to that of the negative control (MICs: minimum inhibitory concentrations) were determined. As the negative control, the liquid medium to which the antibacterial agents were not added was used.
# [3] = tested on: C. kerstersii; type: cell-based, Comamonas kerstersii; details: for MIC: Comamonas kerstersii, read-out: MIC (μg/ml) C. kerstersii
# Procedure: as §1, §2, §4
# [4] = tested on: E. coli; type: cell-based; details: Escherichia coli; Trypticase Soy Broth, 37° C. 24 hours; read-out: MIC (μg/ml) E. coli
# Procedure: as §1, §2, §3
# [5] = Trypticase Soy Broth, 37° C. 24 hours
smiles,measurement,setting,value
"CC(=O)OCC1=C(C(=O)O)N2C(=O)[C@@H](NC(=O)Cc3cccs3)[C@H]2SC1 [Cefalotin, cefalotin sodium salt]",MIC,"[1]; Enterococcus faecium, read-out: MIC (μg/ml) E. faecium",8 µg/mL
same,Sensitivity of P. aeruginosa to the antibacterial agent,[2],low
same,MIC,[2]; [5],> 256 µg/mL
same,MIC,[3]; [5],16 µg/mL
"CO/N=C(\C(=O)N[C@@H]1C(=O)N2C(C(=O)O)=C(COC(C)=O)CS[C@H]12)c1csc(N)n1 [Cefotaxime, cefotaxime sodium salt]",MIC,[4],< 0.5 µg/mL
same,MIC,[2]; [5],16 µg/mL
"CO/N=C(\C(=O)N[C@@H]1C(=O)N2C(C(=O)O)=CCS[C@H]12)c1csc(N)n1 [Ceftizoxime, ceftizoxime sodium]",MIC,[4],< 0.5 µg/mL
same,MIC,[2]; [5],64 µg/mL
"CN(C)c1ccc(O)c2c1C[C@@H]1C[C@@H]3[C@H](N(C)C)C(=O)C(C(N)=O)=C(O)[C@@]3(O)C(=O)C1=C2O.Cl [Minocyclin, minocyclin hydrochloride]",MIC (μg/ml) E. faecium,[1],<0.5 µg/mL
same,Sensitivity of P. aeruginosa to the antibacterial agent,[2],sensitive
same,MIC (μg/ml) P. aeruginosa,[2]; [5],<0.5 µg/mL
same,MIC (μg/ml) C. kerstersii,[3]; [5],<0.5 µg/mL
"CN[C@H](CC(C)C)C(=O)N[C@H]1C(=O)N[C@@H](CC(N)=O)C(=O)N[C@H]2C(=O)N[C@H]3C(=O)N[C@H](C(=O)N[C@H](C(=O)O)c4cc(O)cc(O)c4-c4cc3ccc4O)[C@H](O)c3ccc(c(Cl)c3)Oc3cc2cc(c3O[C@@H]2O[C@H](CO)[C@@H](O)[C@H](O)[C@H]2O[C@H]2C[C@](C)(N)[C@H](O)[C@H](C)O2)Oc2ccc(cc2Cl)[C@H]1O [Vancomycin, vancomycin hydrochloride]",MIC,[2]; 24 h,> 256 µg/mL
same,Sensitivity of C. kerstersii to the antibacterial agent,[3],low
same,MIC,[3]; 24 h,128 µg/mL
